What was measured:
cRXFP3 [1] = assay: pGL3-NFAT-RE-luciferase reporter (calcium mobilization), HEK293 cells expressing cRXFP3; assay type: cell-based, chicken; conditions: rhRLN3 10^-12 to 10^-7 M, 6 h, N = 3
Procedure: (§1) According to our previously established methods ([Liu et al., 2019]; [Jiang et al., 2022]), two cell-based luciferase reporter systems (pGL3-CRE-luciferase and pGL3-NFAT-RE-luciferase) were used to verify whether cRLN3cm is biologically active and capable of activating cRXFP1 and cRXFP3. In brief, HEK293 cells transiently expressing each receptor (cRXFP1 and cRXFP3) were treated with 30 μl serum-free medium containing cRLN3cm or pcDNAcm (0.001–10 μl) for 6 h, and the receptor-activated cAMP/PKA pathways and calcium mobilization were then monitored by pGL3-CRE-luciferase and pGL3-NFAT-RE-luciferase reporter systems, respectively. HEK293 cells expressing empty pcDNA3.1 (+) were used as a negative control.
(§2) To compare the functional difference between chicken RLN3 and human RLN3, recombinant human RLN3 (rhRLN3, 10^–12 to 10^–7 M, 6 h) was used to treat HEK293 cells expressing cRXFP1 or cRXFP3, respectively, and its potency in activating cRXFP1 and cRXFP3 was also evaluated.
(§3) To verify whether chicken RLN3 can activate RXFP1 or RXFP3, a cRLN3-conditioned medium (cRLN3cm, 0.001–10 μl) was used to treat HEK293 cells expressing cRXFP1/cRXFP3. Receptor activation was examined by pGL3-CRE-luciferase and pGL3-NFAT-RE-luciferase reporter systems established in our previous studies ([Liu et al., 2019]).

[2] = tested on: HEK293 cells transfected with an empty pcDNA3.1 (+) vector; assay: Luciferase reporter control, HEK293 cells transfected with empty pcDNA3.1 (+) vector; assay type: cell-based; conditions: rhRLN3 10^-12 to 10^-7 M, 6 h; pGL3-CRE and pGL3-NFAT-RE reporters; N = 3
Text: According to our previously established methods ([Liu et al., 2019]; [Jiang et al., 2022]), two cell-based luciferase reporter systems (pGL3-CRE-luciferase and pGL3-NFAT-RE-luciferase) were used to verify whether cRLN3cm is biologically active and capable of activating cRXFP1 and cRXFP3. […] HEK293 cells expressing empty pcDNA3.1 (+) were used as a negative control.
To explore whether pituitary cells can secrete RLN3, we collected the extracellular medium of adult female chicken pituitary cells to detect its activation potential. According to the method provided in the previous article ([Sun et al., 2021]; [Liu et al., 2022]), the anterior pituitaries from a laying hen were isolated and further cut into small pieces with clean scissors. After washing with PBS, the cut pieces were then digested with 0.25% trypsin at 37°C for 30 min. The dispersed pituitary cells were cultured in Medium 199 supplemented with 10% fetal bovine serum in a Corning Cell BIND 48-well plate (Corning, Tewksbury, MA) at 37°C with 5% CO2. […] The HEK293 cells expressing cRXFP1 were treated with a 60 μl serum-free medium containing chicken pituitary cell extracellular medium (2 × 10^−3μl to 2 × 10^1 μl) for 6 h, and then receptor-activated calcium mobilization was monitored by pGL3-NFAT-RE-luciferase reporter systems. […]

cRXFP1 [3] = assay: pGL3-CRE-luciferase reporter (cAMP/PKA), HEK293 cells expressing cRXFP1; assay type: cell-based, chicken
Procedure: as §1, §2, §3

cRXFP1 [4] = assay: pGL3-NFAT-RE-luciferase reporter (calcium mobilization), HEK293 cells expressing cRXFP1; assay type: cell-based, chicken; conditions: rhRLN3 10^-12 to 10^-7 M, 6 h, HEK293 cells transiently expressing cRXFP1, N = 3, read-out: EC50, Ca^2+, cRXFP1
Procedure: as §1, §2, §3

cRXFP3 [5] = assay: pGL3-CRE-luciferase reporter, inhibition of forskolin-stimulated luciferase activity, HEK293 cells expressing cRXFP3; assay type: cell-based, chicken; conditions: rhRLN3 10^-12 to 10^-7 M, 6 h, HEK293 cells transiently expressing cRXFP3, N = 3, read-out: EC50, cAMP/PKA, cRXFP3 (inhibition of forskolin-stimulated luciferase activity)
Procedure: as §1, §2, §3

[6] = intraventricular (icv) injection, ref McGowan et al., 2008, 2014; cited from earlier work
Text: (§4) Since GnRH is pulsed secreted and negatively regulated by CRH ([Ciechanowska et al., 2010]), the expression of RLN3 mRNA may be regulated by CRH. As the key player in the hypothalam ...

[7] = tested on: rat hypothalamic explants; conditions: ref McGowan et al., 2008, 2014; cited from earlier work
Text: as §4

RXFP3 [8] = conditions: human RXFP3, Gαi/o coupled, ref Liu et al., 2003b, 2005, Bathgate et al., 2006, van der Westhuizen et al., 2007; cited from earlier work
Text: As the typical member of the insulin superfamily, the RLNs bind their receptors to play their physiological roles. In mammals, RLN1 and RLN2 bind the relaxin family peptide 1 receptor (RXFP1) for downstream signaling ([Bathgate et al., 2013]). As their cognate receptor, RXFP1, which is also called the leucine-rich repeat-containing G-protein-coupled receptor 7 (LGR7), is capable of coupling to multiple G-proteins, thus triggering the pathways including cAMP accumulation ([Halls et al., 2006]; [Halls et al., 2007]; [Halls et al., 2009]), ERK1/2 phosphorylation, NO production, and other signalin ...

RXFP1 = conditions: ref Sudo et al., 2003, cited from earlier work
Text: As the typical member of the insulin superfamily, the RLNs bind their receptors to play their physiological roles. In mammals, RLN1 and RLN2 bind the relaxin family peptide 1 receptor (RXFP1) for downstream signaling ([Bathgate et al., 2013]). […] However, only a dose-dependent increase in luciferase activity in HEK293 cells expressing chicken cRXFP1 is detected in the present study which is different from the report in mammalian species that RXFP1 is capable of coupling to Gs and other G-proteins (Gi/o), thus showing a biphasic pattern o ...

[9] = tested on: E2 production during follicular development; conditions: female teleost fish; ref Wilson et al., 2009; Yang et al., 2020; cited from earlier work
Text: Supporting evidence also comes from the high expression of its cognate receptor (cRXFP1) in chicken tissues. Similar to rats, RXFP1 is highly expressed in the uterus involving uterine contractions ([Hsu et al., 2002]; [Vodstrcil et al., 2010]). In addition, cRXFP1 is also detected to be expressed highly in a wide range of female tissues (infundibulum, isthmus, uterus, and vagina), th ...

RXFP3 [10] = conditions: ref Liu et al., 2005; cited from earlier work
Text: Although cRLN3 is able to activate both cRXFP1 and cRXFP3, the potency of cRLN3 for cRXFP1 activation is at least 10-fold higher than that for cRXFP3. […] The present study supports that chicken RLN3 is a functional analog of rhRLN3. However, our finding contrasts with that of mammalian species. […] The difference may result from ligand–receptor interaction mo ...

| Substance | stimulation of luciferase activity (Ca^2+), cRXFP3 (cRXFP3 [1]) | change of luciferase activity in empty-vector cells [2] | potency on cRXFP1 compared with cRXFP3 (in words) (cRXFP1 [3]; HEK293 cells expressing cRXFP1 or cRXFP3) | EC50 (cRXFP1 [3]; rhRLN3 10^-12 to 10^-7 M, 6 h, HEK293 cells transiently expressing cRXFP1, mean of three replicates (N = 3)) | EC50 (cRXFP1 [4]) | EC50 (cRXFP3 [5]) | plasma LH, ACTH and corticosterone levels [6] | release of GnRH and CRH from hypothalamic explants [7] | RXFP3, cAMP level on ligand binding (RXFP3 [8]) | RXFP1 activation, cAMP production (RXFP1; HEK293T cells) | RXFP1 activation in mammals (RXFP1; mammals, Halls et al., 2006) | production of E2 during follicular development [9] | potency on RXFP3 compared with RXFP1 in mammals (RXFP3 [10]) |
| --- | --- | --- | --- | --- | --- | --- | --- | --- | --- | --- | --- | --- | --- |
| recombinant human relaxin 3 [rhRLN3] | not cRXFP3 | did not change the luciferase activity | higher potency for cRXFP1 activation | 2.68 nM | 21.1 nM | 41.5 nM |  |  |  |  |  |  |  |
| relaxin 3 [RLN3] |  |  |  |  |  |  | can also increase plasma LH, ACTH, and corticosterone levels | can stimulate rat hypothalamic explants to release GnRH and CRH | cAMP level decrease upon ligand binding | able to activate RXFP1 inducing a dose-dependent increase in cAMP production | RXFP1 can be activated by RLN3 | promotes the production of E2 during follicular development | a higher potency for RXFP3 activation than for RXFP1 |
